According to US20260028571A1, “BIOREACTORS FOR PERFUSING CELLS” (Ramot at Tel-Aviv University Ltd., priority 2023, published 2026):

Experiments:
[1] = test system: patient-derived mucosal melanoma cells; assay: Drug testing on patient-derived 3D tumor organoids in the perfusion system; assay type: cell-based, human; conditions: 96-well 3D tumor organoids with patient-derived PBMCs, FIG. 7
Protocol: (§1) Blood and tissue samples from a mucosal melanoma, a patient having the following characteristics: • person, malignant mucosal melanoma. • Tissue site: resected from the groin lymph node
96-well 3D tumor organoids were generated from the tumor sample (i.e. tumor cells and microenvironment cells, blood vessels and PBMCs were created from the samples. The tumor organoids were cultured in a plate similar to that shown in FIG. 1A. Each treatment was tested on multiple 3D organoids, each treatment corresponding to a single sequence of connected cell wells.
Multiple treatments and combinations were tested on the patient-derived mucosal melanoma cells and the patient-derived PBMCs, as summarized in FIG. 7.

[2] = test system: malignant mucosal melanoma; assay: Clinical treatment of the mucosal melanoma patient; assay type: in vivo, human
Source text: as §1
This was followed by additional cycles of nivolumab post-surgery as adjuvant therapy resulting in further PD.
The perfusion system could have anticipated the unfavorable prognosis associated with Nivolumab (which was what was originally prescribed by the doctor) within 1-2 weeks, potentially sparing the patient six months of ineffective treatment, side effects, and the high costs as well as the time in which further mutations occurred.

Compound: CNC(=O)c1cc(Oc2ccc(NC(=O)Nc3ccc(Cl)c(C(F)(F)F)c3)c(F)c2)ccn1 [Regorafenib]
- efficacy [1]: 93%
- reduction in tumor size ([2]; within a two-week timeframe): 50%

Compound: Nivolumab
- response [1]: 0%
- clinical outcome ([2]; additional cycles post-surgery as adjuvant therapy): further PD
- clinical outcome ([2]; neoadjuvant therapy, 4 cycles): progressive disease (PD)

Compound: Atezolizumab
- response [1]: 0%

Compound: Pembrolizumab
- response [1]: 0%
